Test results from article PMC11784026, “Phase 1 study of the safety, tolerability, and pharmacokinetics of a synthetic macrocyclic peptide antibiotic (BRII-693) in healthy adult participants” (Antimicrobial Agents and Chemotherapy, 2024).
“And” between values parts separate entries of the source, which are not always exact repeats. Equal entries are not always repeated. Where two headings read alike, the source gives them in different places. Where a SMILES comes first, the peptide text is derived from it. Bridges are numbered along the chain shown (N, C = ends). [ ]: non-standard residue; d: D form. The star is where a group is joined. X1 = O=C(c1ccc(Cl)cc1Cl)*; Dab = NCC[C@H](N)C(=O)O; Abu = CC[C@H](N)C(=O)O; Dap = NC[C@H](N)C(=O)O

Legend:
[1] = Plasma pharmacokinetics after multiple ascending doses (MAD), phase 1; assay type: in vivo, human (healthy adult participants); conditions: human, plasma, iv; for Vd: read-out: VZ; for Tmax: 7-day MAD 200 mg q6h × 7, n = 5, median (range), read-out: Tmax
Experimental: Participants were discharged on day 11.
Plasma and urine PK parameters were summarized for each cohort using descriptive statistics. Analyses using linear models were performed to assess dose proportionality (both single-dose cohorts 1–7 and multiple-dose cohorts 8–10). Dose-linearity of Cmax and AUC across the dose range was assessed by fitting the power model with ln-transformed parameter as response variables and ln-transformed dose (continuous variable) as a fixed effect. For each PK parameter and study phase (SAD or MAD) separately, a pooled estimate (across all dose cohorts) of slope, corresponding 95% confidence interval (CI), and between-subject coefficient of variation (CV) were calculated. Dose proportionality was to be concluded if the 95% CI for the slope spans 1. […] Least square means (LSMs) and difference in LSMs with 90% CI were calculated; these values were then back exponentiated to give the geometric LSM, geometric mean ratio, and 90% CI.

[2] = Renal function: serum creatinine, RIFLE Risk criteria; assay type: in vivo, human (healthy adult participants); conditions: for Serum creatinine level: cohort 12, 150 mg q6h × 14 days
Text: Safety assessments included repeated measures of laboratory testing, vital signs, ECGs, physical examinations, and adverse event (AE) monitoring and reporting conducted before, during, and after study drug administration. A >1.5× increase from baseline in creatinine was characterized as meeting the (RIFLE) “Risk” level (or Class R) criteria ([10]). Participants were confined at the clinical research unit for the duration of their study participation. For the SAD cohorts, confinement was from the day before dosing through day 3 (at least 48 hours after dosing). For the MAD cohorts, confinement was from the day before dosing through day 11 for cohorts 8 to 10 and through day 17 for cohorts 11 and 12.

[3] = 150 mg, Last q6h dose (day 14), 14-day MAD 150 mg q6h × 14, Chinese, n = 6, arithmetic mean ± SD
[4] = 150 mg, Last q6h dose (day 14), 14-day MAD 150 mg q6h × 14, non-Chinese, n = 10, arithmetic mean ± SD
[5] = 200 mg, First q6h dose (day 3), 7-day MAD 200 mg q6h × 7, n = 4, arithmetic mean ± SD
[6] = 200 mg, Last q6h dose (day 9), 7-day MAD 200 mg q6h × 7, n = 5, arithmetic mean ± SD

## CC[C@@H]1NC(=O)[C@@H](CC(C)C)NC(=O)[C@H](CCN)NC(=O)[C@@H](NC(=O)[C@H](CN)NC(=O)[C@@H](NC(=O)[C@H](CCN)NC(=O)c2ccc(Cl)cc2Cl)[C@@H](C)O)CCNC(=O)[C@H]([C@@H](C)O)NC(=O)[C@H](CCN)NC(=O)[C@H](CCN)NC1=O [BRII-693] (X1-[Dab]T[Dap][Dab][Dab][dL][Abu][Dab][Dab]T; lactam 4-C; N-terminus assumed)
[1]; 150 mg, Last q6h dose (day 9), 7-day MAD 150 mg q6h × 7, plasma, n = 5, arithmetic mean ± SD
  Cmax: 11700 ± 1540 ng/mL
[1]; [3]
  clearance: 59.5 mL/min
  half-life: 12.4 ± 6.92 h
  Vd: 61.9 ± 30.2 L
  Cmax: 13300 ± 1500 ng/mL
[1]; 150 mg, Last q6h dose (day 14), 14-day MAD 150 mg q6h × 14, Chinese, n = 6, arithmetic mean ± SD, read-out: AUC0–6h
  AUC(0-t): 42500 ± 4960 ng·h/mL
[1]; [4]
  clearance: 64.7 mL/min
  half-life: 15.6 ± 11.7 h
  Vd: 81.4 ± 55.6 L
  Cmax: 12700 ± 1780 ng/mL
[1]; 150 mg, Last q6h dose (day 14), 14-day MAD 150 mg q6h × 14, non-Chinese, n = 10, arithmetic mean ± SD, read-out: AUC0–6h
  AUC(0-t): 39900 ± 7150 ng·h/mL
[1]; 200 mg, First q6h dose (day 3), 7-day MAD 200 mg q6h × 7, 1-h IV infusion, n = 5, arithmetic mean ± SD
  Cmax: 13500 ± 4430 ng/mL
[1]; [5]
  clearance: 76.3 mL/min
  Vd: 15.7 ± 5.81 L
[1]; 200 mg, First q6h dose (day 3), 7-day MAD 200 mg q6h × 7, n = 5, arithmetic mean ± SD
  half-life: 2.49 ± 0.51 h
[1]; 200 mg, First q6h dose (day 3), 7-day MAD 200 mg q6h × 7, n = 5, arithmetic mean ± SD, read-out: AUC0-6h
  AUC(0-t): 36800 ± 10100 ng·h/mL
[1]; 200 mg, First q6h dose (day 3)
  Tmax: 1.08 h
[1]; [6]
  clearance: 57.8 mL/min
  half-life: 7.58 ± 0.93 h
  Vd: 37.3 ± 8.4 L
[1]; 200 mg, Last q6h dose (day 9), 7-day MAD 200 mg q6h × 7, n = 5, arithmetic mean ± SD, read-out: AUC0–6h
  AUC(0-t): 61300 ± 15700 ng·h/mL
[1]; 200 mg, Last q6h dose (day 9)
  Tmax: 1.1 h
[1]; 200 mg, Last q6h dose (day 9), 7-day MAD 200 mg q6h × 7, plasma, n = 5, arithmetic mean ± SD
  Cmax: 18300 ± 4150 ng/mL
[2]; 150 mg q6h × 14 days
  Participants with creatinine elevation (>1.5× increase from baseline, RIFLE risk class): 1 of 20
[2]; 200 mg q6h × 7 days, first participant, day 11
  Serum creatinine level after completion of therapy: 1.17 mg/dL
[2]; 200 mg q6h × 7 days, one participant, day 10
  Peak serum creatinine level: 1.54 mg/dL
[2]; 200 mg q6h × 7 days, other participant, day 11
  Serum creatinine level after completion of therapy: 1.10 mg/dL
[2]; 200 mg q6h × 7 days, reversible
  Participants with creatinine elevation (>1.5× increase from baseline, RIFLE risk class): Two of six and 2 of 6
[2]; 200 mg q6h × 7 days, the other participant, day 9
  Peak serum creatinine level: 1.64 mg/dL
[2]; one participant, day 9
  Serum creatinine level: 1.74 mg/dL
[2]; one participant, day 11
  Serum creatinine level: 1.72 mg/dL
[2]; one participant, day 13
  Serum creatinine level: 2.07 mg/dL
[2]; same participant, unscheduled visit after day 13
  Serum creatinine level: 1.39 mg/dL
7-day MAD cohorts 8–10, after multiple dosing, all BRII-693-treated (5 of 17)
  Participants reporting AEs: 29.4%
7-day MAD cohorts 8–10, after single dosing on day 1, all BRII-693-treated (3 of 17)
  Participants reporting AEs: 17.6%
7-day MAD, 200 mg, after the single dose on day 1 (One of 6)
  Participants who discontinued the study due to treatment-related AE (headache, moderate): 16.7%
7-day MAD, after multiple dosing, 100 mg q6h (2 of 6)
  Participants reporting AEs: 33.3%
7-day MAD, after multiple dosing, 200 mg q6h (3 of 6)
  Participants reporting AEs: 50.0%
7-day MAD, after single dosing on day 1, 150 mg (1 of 5)
  Participants reporting AEs: 20.0%
7-day MAD, after single dosing on day 1, 200 mg (2 of 6)
  Participants reporting AEs: 33.3%
SAD phase, 100 mg (1 of 6)
  Participants reporting AEs: 16.7%
SAD phase, 200 mg (1 of 6)
  Participants reporting AEs: 16.7%
SAD phase, all AEs (five events, placebo included)
  Severity of AEs: mild in severity
SAD phase, all BRII-693-treated participants (2 of 41)
  Participants reporting AEs: 4.9%
Cohort 11, 150 mg q6h × 14 days, non-Chinese (5 of 10)
  Participants reporting AEs: 50.0%
Cohort 12, 150 mg q6h × 14 days, Chinese (Five of the 10)
  Participants reporting AEs: 50.0%
In vivo, iv
  Overall safety and tolerability: safe and well tolerated
